Data published in patent publication US20250151740A1, “COMPOSITION FOR PREVENTING FUNGAL SPOILAGE IN POST-HARVEST FRUITS, VEGETABLES AND FLOWERS, METHOD AND USE THEREOF” (BIOBAB R&D, S.L., priority 2022, published 2025).
Entries after “also recorded” stand apart in the source; their conditions may differ.

Legend:
[1] = system: Phytophtera nicotiana; assay: Vapor-agar contact method (modified, three-compartment petri dish); assay type: cell-based; settings: 50 μL; stated in text for all fungi of the example
Description: (§1) Inhibitory effects on the spore germination of other filamentous fungi, specifically Phytophtera nicotiana, Taphrina deformans, Colletotrichum and Rhizopus sp., were examined by the vapor-agar contact method described in example 1 with a slight modification as follows. Fungi were cultured on potato dextrose agar (PDA) medium at 27° C. for a week. It was used petri dish with three compartment, one compartment was filled out with PDA and another two was kept empty,
(§2) Fungal spores were then inoculated in the center of the compartment with PDA (40 mm diameter) and a small piece of cellulose with 50 μL of β-cyclocitral (β-CC) (composition of the present invention) was placed in one of the empty compartments. The plates were incubated at 27° C. for 3-5 days and the growth area of the mycelium and % of inhibition was measured.

[2] = system: Colletotrichum; assay: as above; assay type: cell-based; settings: 50 μL, 27° C., 3-5 days
Description: as §1, §2

[3] = system: Rhizopus sp.; assay: as above; assay type: cell-based; settings: 50 μL
Description: as §1, §2

[4] = system: Taphrina deformans; assay: as above; assay type: cell-based; settings: 50 μL, 27° C., 3-5 days
Description: as §1, §2

[5] = system: roses; assay: In vivo test on roses with controlled release diffuser; settings: diffuser with 50 μL, 20° C., darkness, approx. 7 days, versus control
Description: Roses were brought directly from local market and sent to laboratory within 12 hours. The roses were divided into two equal groups and each group of roses was placed in a jar filled with tap water.
(§3) One group of roses were not exposed to any product (control) and another group of roses were exposed to a controlled release diffuser that contains the composition of the present invention. The controlled release diffuser was prepared using cellulose sheets (0.2 cm thick) in pieces (2×1 cm) and impregnated with 50 μL of pure β-cyclocitral (β-CC). These sheets were inserted into polyethylene bags (3×3 cm) that were subsequently heat-sealed.
The diffuser was place in the middle of jar from 20 cm to the surface of the petals. The two jars were covered with a plastic bag to keep inside a homogeneous atmosphere. jars were kept in an acclimated chamber (20° C., darkness) until the symptoms of fungi degradation (approx. 7 days).

[6] = system: Monilinia sp; assay: Vapor-agar contact method, colony diameter; assay type: cell-based
Description: (§4) The fungi grown on strawberries was isolated and cultured on potato dextrose agar (PDA, Condalab, Madrid Spain) The fungus was identified as Monilinia sp.
Antifungal activity was determined by the vapor-agar contact method previously described by Sekiyama et al.. Fungi were cultured on potato dextrose agar (PDA) medium at 27° C. for a week. Fungal spores were then inoculated in the center of PDA plates which were aseptically placed in a chamber without lids.
A controlled release diffuser as described in examples 1 and 2 was used. In this example 3 doses of β-cyclocitral (β-CC) were used: 20, 50 and 100 μL.
The diffusers were introduced into the chambers, 6 cm far from the PDA plate, followed by proper sealing. Incubation in the chambers was performed at 27° C. for 3-5 days. The inhibitory activity was evaluated by measuring the diameter of colonies formed by the tested fungal strains. The minimum inhibitory dose (MID) was defined as the lowest concentration (mg/L in air) of volatile compounds which inhibited colony formation of test fungi by 50%.

[7] = system: strawberries; assay: In vivo test on strawberries with controlled release diffuser; settings: diffuser with 50 μL, 20° C., darkness, approx. 7 days, versus control; listed as composition of the present invention
Description: Mature strawberries were brought directly from local market and sent to laboratory within 2 hours. The strawberries were divided into two equal groups and each group of strawberries was placed in a box.
as §3, with “strawberries” for “roses”
The diffuser was place in the middle of one box from 10 cm to the surface of strawberries. The two boxes were covered with a plastic bag to keep inside a homogeneous atmosphere. Boxes were kept in an acclimated chamber (20° C., darkness) until the symptoms of fungi degradation (approx. 7 days).

[8] = system: Monilinia sp.; assay: Compartment PDA plate, β-CC and eucalyptol on cellulose, mycelium growth inhibition; assay type: cell-based; settings: 25 μl of the single substance, 27° C., 3-5 days
Description: as §4
as §2, with “different volume” for “50 μL”, “invention) and Eucalyptol” for “invention)”

[9] = system: cherries; assay: In vivo test on cherries with controlled release diffuser; settings: diffuser with 50 μl, 20° C., darkness, 6 days; control approximately 23%
Description: Mature cherries were brought directly from Spanish farm and sent to laboratory within 24 hours. The cherries were divided into two equal groups and each group of cherries was placed in a plate.
as §3, with “cherries” for “roses”, “μl” for “μL”
The diffuser was placed in the bottom of one plate. The two plates were covered with a plastic bag to keep inside a homogeneous atmosphere. Boxes were kept in an acclimated chamber (20° C., darkness) for 6 days.
Finally, the cherries (control and exposed to the composition) were separate into two groups: fruits able to consume (not sign of fungi) and fruits not able to consume (signs of fungi).

CC1=C(C=O)C(C)(C)CCC1 [β-CC, beta-cyclocitral]
growth inhibition [1]: 100%
% Inhibition [2]: 99.00%
Growth area [2]: 6.15 cm^2
% Inhibition ([3]; 27° C., 3-5 days): 62.55%
Growth area ([3]; 27° C., 3-5 days): 1.45 cm^2
effect on spore germination (FIG. 3) ([3]; versus control): inhibitory effect on the spore germination
% Inhibition [4]: 100%
Growth area [4]: 0 cm^2
spots on roses [5]: less spots
inhibition ([6]; concentrations higher than 50 μL): more than 60%
inhibition ([6]; concentrations of 100 μL): 80-100%
doses that inhibit 50% of mycelium fungi (MID) ([6]; from linear model y=1.01X+4.2047, doses 20, 50 and 100 μL, 27° C., 3-5 days): 45.34 µL
rot / fungi contamination of strawberries [7]: less fungi contamination; also recorded: less rot
% Inhibition [8]: 78.22%
cherries suitable for consumption [9]: approximately 65%
